We go through two compounds from patent US7977330B2, “Salts and crystal modifications thereof” (Novartis AG, priority 2006, dated 2011).

Molecules are shown by their SMILES.

The nature of this data set: solubility in aqueous media. The data set is classed as physicochemical. Conditions: qualitative statement.

In the case of `O.O=C(Nc1ccccc1F)NC1N=C(c2ccccc2)c2ccccc2NC1=O.O=S(=O)(O)c1ccccc1` (centres unmarked) [RSV604 Besylate Monohydrate Salt, 1-(2-Fluoro-phenyl)-3-(2-oxo-5-phenyl-2,3-dihydro-1H-benzo[e][1,4]diazepin-3-yl)-urea besylate monohydrate], the “solubility in aqueous media” value is listed as “particularly good solubility properties”.

On to `O=C(Nc1ccccc1F)NC1N=C(c2ccccc2)c2ccccc2NC1=O` (centres unmarked) [RSV604 free base, 1-(2-Fluoro-phenyl)-3-(2-oxo-5-phenyl-2,3-dihydro-1H-benzo[e][1,4]diazepin-3-yl)-urea], for which the “solubility in aqueous media” value is “low solubility”.
